Measurements taken from patent US8202879B2, “Quinazoline derivatives having tyrosine kinase inhibitory activity” (Shionogi & Co., Ltd., priority 2005, dated 2012).
Counter-ions that a name gives are not always drawn. Like-named read-outs stand apart in the source and are kept apart here.

Experiments:
BT-474 = assay: In vitro cell proliferation inhibition, WST assay; assay type: cell-based, human; conditions: BT-474 cells, cultured for 3 days, read-out: BT-474 (nM) proliferation inhibitory activity (IC50 value)
Protocol: Test of In Vitro Cell Proliferation Inhibition of Test Compound
As a human-derived cancer cell strain, BT-474 was used. Cells were all cultured in a 37° C., 5% CO2 incubator in a medium in which 10% bovine fetal serum (ICN) and 50 units ml penicillin/60 μg/ml streptomycin solution (GIBCO) were added to Dulbecco's Modified Essential Medium (DMEM, Nacalai Tesque, Inc).

EGFR = target: T1, EGFR (Homo sapiens, UniProt P00533); assay: Enzyme inhibitory activity on EGFR (time resolution fluorescence, biotinylated poly-Glu-Tyr substrate); assay type: biochemical
T1 construct: purchased Carna Biosciences, Inc; host or cells: insect cell expression system
T1 sequence (P00533 25-1210): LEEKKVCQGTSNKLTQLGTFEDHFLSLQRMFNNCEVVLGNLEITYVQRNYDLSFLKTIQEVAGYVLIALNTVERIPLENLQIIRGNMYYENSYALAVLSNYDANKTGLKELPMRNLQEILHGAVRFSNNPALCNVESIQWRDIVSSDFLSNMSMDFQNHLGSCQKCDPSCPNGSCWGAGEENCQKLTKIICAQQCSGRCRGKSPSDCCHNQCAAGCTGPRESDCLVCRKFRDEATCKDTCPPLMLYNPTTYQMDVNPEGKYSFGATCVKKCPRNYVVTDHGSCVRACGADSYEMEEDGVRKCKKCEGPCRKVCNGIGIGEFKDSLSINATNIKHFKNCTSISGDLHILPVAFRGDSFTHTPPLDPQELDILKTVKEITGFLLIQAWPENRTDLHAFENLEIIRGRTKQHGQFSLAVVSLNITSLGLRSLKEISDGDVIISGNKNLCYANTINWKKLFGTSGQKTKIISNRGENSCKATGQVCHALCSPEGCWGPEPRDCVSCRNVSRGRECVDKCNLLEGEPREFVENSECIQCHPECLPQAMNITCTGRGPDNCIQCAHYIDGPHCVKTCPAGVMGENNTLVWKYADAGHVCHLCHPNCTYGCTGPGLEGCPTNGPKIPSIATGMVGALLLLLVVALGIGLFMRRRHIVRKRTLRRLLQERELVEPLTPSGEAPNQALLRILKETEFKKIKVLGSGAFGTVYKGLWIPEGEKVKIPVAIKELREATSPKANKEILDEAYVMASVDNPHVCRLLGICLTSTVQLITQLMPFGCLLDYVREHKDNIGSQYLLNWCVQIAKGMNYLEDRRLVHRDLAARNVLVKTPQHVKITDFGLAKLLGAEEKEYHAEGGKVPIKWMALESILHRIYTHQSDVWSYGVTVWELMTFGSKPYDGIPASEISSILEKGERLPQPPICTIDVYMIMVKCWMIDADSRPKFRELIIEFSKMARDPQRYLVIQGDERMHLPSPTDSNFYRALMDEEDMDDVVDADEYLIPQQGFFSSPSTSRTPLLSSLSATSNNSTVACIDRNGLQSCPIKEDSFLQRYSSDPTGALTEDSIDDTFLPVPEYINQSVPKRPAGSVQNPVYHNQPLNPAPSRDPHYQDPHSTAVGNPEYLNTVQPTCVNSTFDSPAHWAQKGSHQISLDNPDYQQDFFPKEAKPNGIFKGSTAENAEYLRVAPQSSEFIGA
Protocol: (§1) Enzyme Inhibitory Activity of Test Compound on EGFR and HER2
(§2) EGFR and HER2 purified from an insect cell expression system, and a biotinylated substrate (synthetic peptide of glutamic acid:tyrosine=4:1) were added to a 384-well plate with ATP added thereto, and an enzyme reaction was performed at room temperature. After completion of the enzyme reaction, an anti-phosphorylated tyrosine antibody labeled with europium and streptavidin labeled with alphycocyanine were added, and a phosphorylated tyrosine residue was quantified by a time resolution fluorescence method.
(§3) A test compound was adjusted to 10 mM using DMSO.
(§4) Further, using 10% DMSO solution, a 1 mM solution was prepared, and this was regarded as a maximum concentration point.
(§5) As a dilution series, a 4-fold dilution series was prepared to a 10 stage.
(§6) As a buffer, TBS containing 10 mM MgCl2, 5 mM MnCl2, 0.2 mM Na3VO4, and 0.1% BSA was used.
(§7) As EGFR and HER2 enzymes, those purified from an insect cell expression system were purchased from Carna Biosciences, Inc.
An EGFR enzyme solution was adjusted to 250 ng/ml using a buffer.
(§8) As a substrate, biotinylated poly-Glu-Tyr (4:1, manufactured by CISbio) was used. A concentration was adjusted to 3.125 μg/ml using the above buffer.
An ATP concentration on study of the EGFR enzyme was adjusted to 125 μM using the buffer.
(§9) For preparing a detection reagent, TBS containing 30 mM EDTA, 0.8M KF and 0.1% BSA was used.
(§10) An anti-phosphorylated tyrosine antibody labeled with europium, PT-66K (CISbio) was adjusted to 195 ng/ml, and streptavidin labeled with alphycocyanine, SA-XL (CISbio) was adjusted to 5 μg/ml.
(§11) As an assay plate, a 384-well plate was used. Per one well, 1.1 μl of a test compound, 4 μl of a substrate solution, and 4 μl of an enzyme solution were added, and 2 μl of an ATP solution was added to initiate an enzyme reaction. The enzyme reaction was performed at room temperature for 60 minutes, and 10 μl of a detection reagent was added to complete the reaction. One hour after completion of the reaction, time resolution fluorescent measurement was performed.

HER2 = target: T2, HER2 (Homo sapiens, UniProt P04626); assay: Enzyme inhibitory activity on HER2 (time resolution fluorescence, biotinylated poly-Glu-Tyr substrate); assay type: biochemical
T2 construct: purchased Carna Biosciences, Inc; host or cells: insect cell expression system
T2 sequence (P04626 23-1255): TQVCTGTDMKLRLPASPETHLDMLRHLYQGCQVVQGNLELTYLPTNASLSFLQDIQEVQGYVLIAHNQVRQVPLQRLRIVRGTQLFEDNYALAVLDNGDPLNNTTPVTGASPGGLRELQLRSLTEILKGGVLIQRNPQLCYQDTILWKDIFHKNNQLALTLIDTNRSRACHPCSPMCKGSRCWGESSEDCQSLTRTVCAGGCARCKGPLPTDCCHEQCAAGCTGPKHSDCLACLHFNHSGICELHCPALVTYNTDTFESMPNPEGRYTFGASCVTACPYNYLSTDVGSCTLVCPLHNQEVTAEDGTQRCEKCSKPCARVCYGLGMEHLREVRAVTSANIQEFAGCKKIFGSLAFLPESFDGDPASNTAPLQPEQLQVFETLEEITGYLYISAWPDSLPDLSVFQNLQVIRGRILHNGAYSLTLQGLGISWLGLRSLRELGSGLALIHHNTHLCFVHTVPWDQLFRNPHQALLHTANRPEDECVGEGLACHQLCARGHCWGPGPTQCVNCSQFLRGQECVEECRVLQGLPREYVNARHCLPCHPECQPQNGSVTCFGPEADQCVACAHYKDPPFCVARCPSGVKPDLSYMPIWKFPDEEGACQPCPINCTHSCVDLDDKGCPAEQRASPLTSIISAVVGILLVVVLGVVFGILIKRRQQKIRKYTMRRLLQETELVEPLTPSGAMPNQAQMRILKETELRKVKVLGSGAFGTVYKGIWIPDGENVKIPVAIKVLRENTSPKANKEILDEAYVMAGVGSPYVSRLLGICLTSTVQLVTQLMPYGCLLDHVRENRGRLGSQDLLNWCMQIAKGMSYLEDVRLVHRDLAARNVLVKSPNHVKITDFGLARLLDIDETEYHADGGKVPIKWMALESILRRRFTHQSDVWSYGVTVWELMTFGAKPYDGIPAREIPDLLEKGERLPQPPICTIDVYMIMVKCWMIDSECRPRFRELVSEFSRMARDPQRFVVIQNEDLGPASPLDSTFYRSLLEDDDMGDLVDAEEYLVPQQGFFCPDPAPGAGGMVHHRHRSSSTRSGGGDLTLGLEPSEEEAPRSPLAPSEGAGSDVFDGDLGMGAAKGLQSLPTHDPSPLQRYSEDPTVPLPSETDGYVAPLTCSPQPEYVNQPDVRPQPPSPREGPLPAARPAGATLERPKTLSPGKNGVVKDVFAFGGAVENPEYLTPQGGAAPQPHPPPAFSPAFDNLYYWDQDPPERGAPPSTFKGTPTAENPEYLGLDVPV
Protocol: as §1, §2, §3, §4, §5, §6, §7
HER2 kinase was adjusted to 1000 ng/ml using a buffer.
as §8
An ATP concentration on study of the HER2 enzyme was adjusted to 290 μM.
as §9, §10, §11

[1] = EGFR purified from insect cell expression system, ATP solution 125 μM, room temperature, 60 minutes
[2] = HER2 purified from insect cell expression system, ATP solution 290 μM, room temperature, 60 minutes
[3] = enzyme reaction at room temperature for 60 minutes

Compound	IC50 (BT-474; Homo sapiens, BT-474, 72 h) [nM]	IC50 (EGFR; [1]) [nM]	IC50 (HER2; [2]) [nM]	IC50 (EGFR; [3]) [nM]	IC50 (HER2; [3]) [nM]	IC50 (BT-474) [nM]
Fc1cccc(COc2ccc(Nc3ncnc4ccc(/C=N/OCCN5CCCC5)cc34)cc2Cl)c1 [Compound V-6]	110	6.5	3.6	–	–	–
Fc1cccc(COc2ccc(Nc3ncnc4ccc(/C=N/OCCN5CCOCC5)cc34)cc2Cl)c1 [Compound V-7]	134	36	76	–	–	–
C=CC(=O)N1CCN(CCON=Cc2ccc3ncnc(Nc4ccc(OCc5cccc(F)c5)c(Cl)c4)c3c2)CC1 [Compound V-43, 4-(3-chloro-4-(3-fluorobenzyloxy)phenylamino)-6-(2-(4-acryloyl-1-piperazin-1-yl)ethoxyimino)methylquinazoline]	71	186	151	–	–	–
Fc1cccc(COc2ccc(Nc3ncnc4ccc(C=NN5CCCC5)cc34)cc2Cl)c1 [IX-1, 4-(3-chloro-4-(3-fluorobenzyloxy)phenylamino)-6-(pyrrolidin-1-yliminomethyl)quinazoline]	–	–	–	138	203	–
Fc1cccc(COc2ccc(Nc3ncnc4ccc(/C=N/N5CCCCC5)cc34)cc2Cl)c1 [IX-4]	–	–	–	193	334	–
COC[C@@H]1CCCN1/N=C/c1ccc2ncnc(Nc3ccc(OCc4cccc(F)c4)c(Cl)c3)c2c1 [IX-6]	–	–	–	344	326	–
CN(/N=C/c1ccc2ncnc(Nc3ccc(OCc4cccc(F)c4)c(Cl)c3)c2c1)c1ccccc1 [IX-8]	–	–	–	426	549	–
CC/C(=N\OCCN1CCOCC1)c1ccc2ncnc(Nc3ccc(OCc4cccc(F)c4)c(Cl)c3)c2c1 [VIII-7]	63	103	348	–	–	–

Continued, values first:

IC50 (BT-474; Homo sapiens, BT-474, 72 h) [nM]	IC50 (EGFR; [1]) [nM]	IC50 (HER2; [2]) [nM]	IC50 (EGFR; [3]) [nM]	IC50 (HER2; [3]) [nM]	IC50 (BT-474) [nM]	Compound
27	409	484	–	–	–	CC#CC(=NOCCN1CCOCC1)c1ccc2ncnc(Nc3ccc(OCc4cccc(F)c4)c(Cl)c3)c2c1 [VIII-10]
69	209	227	–	–	–	O=S1(=O)CCN(CCON=C(c2ccccc2)c2ccc3ncnc(Nc4ccc(OCc5cccc(F)c5)c(Cl)c4)c3c2)CC1 [VIII-12]
64	300	888	–	–	–	Fc1cccc(COc2ccc(Nc3ncnc4ccc(C(=NOCCN5CCOCC5)c5ccccc5)cc34)cc2Cl)c1 [VIII-13]
–	89	115	–	–	–	CC/C(=N\OCCNCCS(C)(=O)=O)c1ccc2ncnc(Nc3ccc(OCc4cccc(F)c4)c(Cl)c3)c2c1 [VIII-19]
37	29	31	–	–	–	CC/C(=N\OCCNC)c1ccc2ncnc(Nc3ccc(OCc4cccc(F)c4)c(Cl)c3)c2c1 [VIII-20]
–	33	43	–	–	13	CC#C/C(=N\OCCNC)c1ccc2ncnc(Nc3ccc(OCc4cccc(F)c4)c(Cl)c3)c2c1 [VIII-27]
–	162	167	–	–	72	CC#C/C(=N\OCCNC1CCCCC1)c1ccc2ncnc(Nc3ccc(OCc4cccc(F)c4)c(Cl)c3)c2c1 [VIII-28]
77	102	513	–	–	–	CS(=O)(=O)CCNCCON=C(c1ccccc1)c1ccc2ncnc(Nc3ccc(OCc4cccc(F)c4)c(Cl)c3)c2c1 [VIII-29]
32	50	46	–	–	–	CC#CC(=NOC[C@@H]1CNCCO1)c1ccc2ncnc(Nc3ccc(OCc4cccc(F)c4)c(Cl)c3)c2c1 [VIII-32, 4-(3-chloro-4-(3-fluorobenzyloxy)phenylamino)-6-(1-((S)-morpholin-2-ylmethoxyimino)-2-butyn-1-yl)quinazoline dihydrochloride]
24	11	25	–	–	–	CC#CC(=NOCCNCC)c1ccc2ncnc(Nc3ccc(OCc4cccc(F)c4)c(Cl)c3)c2c1 [VIII-35]
22	52	–	–	–	–	CC#C/C(=N\OCCN(C)CCOC)c1ccc2ncnc(Nc3ccc(OCc4cccc(F)c4)c(Cl)c3)c2c1 [VIII-64]
–	–	–	–	–	8	CC#C/C(=N\OC[C@@H]1C[C@H](O)CN1)c1ccc2ncnc(Nc3ccc4c(cnn4Cc4cccc(F)c4)c3)c2c1 [VIII-200]
